# Several values for one entry are separate records, joined by “and”; a condition that tells them apart may be missing. Equal entries are not always repeated.
# Molecular target: SARS-CoV-2 3CL protease (Severe acute respiratory syndrome coronavirus 2, UniProt P0DTD1)
# Assay: biochemical
# Conditions: 50% SARS-CoV-2 3CL protease inhibitory concentration, given as class symbols; read-out: IC50
row,SMILES,IC50
1,Cn1cnc(Cn2c(=O)nc(Nc3cc4cn(CC5(N)CC5)nc4cc3Cl)n(Cc3cc(F)c(F)c(Cl)c3)c2=O)n1 [II-0558],< 100 nM

# Same assay, conditions: 50% SARS-CoV-2 3CL protease inhibitory concentration; RapidFire MS; read-out: IC50
row,SMILES,IC50
1,Cc1cncc(-n2c(=O)nc(Nc3cc4cn(C)nc4cc3Cl)n(C[C@@H]3CCCN3)c2=O)c1 [II-0085],9200 nM

# Same assay, conditions: IC50
row,SMILES,IC50
1,CNC(=O)Cn1c(=O)[nH]/c(=N\c2cc3cn(C)nc3cc2Cl)n(Cc2cc(F)c(F)c(F)c2)c1=O [II-0328],< 100 nM
2,Cn1cc(Nc2nc(=O)n(Cc3ccc[nH]c3=O)c(=O)n2Cc2cc(F)c(F)c(F)c2)c(Cl)cc1=O [Compound I-0244],< 100 nM
3,Cn1cnc(Cn2c(=O)nc(Nc3cc4c(=O)n(C)cnc4cc3Cl)n(Cc3cc(F)c(F)cc3F)c2=O)n1 [II-0013],< 100 nM
4,CNc1cncc(-n2c(=O)nc(Nc3cc4c(cc3Cl)OCC4)n(Cc3cc(F)c(F)cc3F)c2=O)c1 [II-0613],< 100 nM
5,O=C1OCCN1c1ccc(Nc2nc(=O)n(Cc3ccc[nH]c3=O)c(=O)n2Cc2cc(F)c(F)c(F)c2)c(Cl)c1 [Compound I-0397],730 nM and 100 to 1000 nM
6,O=c1[nH]cccc1Cn1c(=O)nc(N[C@@H]2CCN(c3ccccn3)C2)n(Cc2cc(F)c(F)c(F)c2)c1=O [II-0374],3500 nM
7,COc1ccc(Nc2nc(=O)n(Cc3cc(C(=O)NCc4cnn(C)c4)c[nH]c3=O)c(=O)n2Cc2cc(F)c(F)c(F)c2)cc1 [II-0324],< 100 nM
8,COc1ccc(Nc2nc(=O)n(Cc3ccc[nH]c3=O)c(=O)n2Cc2cc(F)cc(C#N)c2)cc1 [Compound I-0234],< 100 nM
9,O=c1[nH]cccc1Cn1c(=O)nc(NC2CCCC2)n(Cc2cc(F)c(F)c(F)c2)c1=O [Compound I-0204],610 nM and 100 to 1000 nM
10,Cn1cnc(Cn2c(=O)nc(NC34CC(Nc5ncc(C(F)(F)F)cn5)(C3)C4)n(Cc3cc(F)c(F)c(F)c3)c2=O)n1 [II-0470],< 100 nM
11,Cc1cnn(Cc2cc(F)c(F)cc2Cn2c(Nc3cc4cn(C)nc4cc3Cl)nc(=O)n(Cc3ncn(C)n3)c2=O)c1 [II-0637],< 100 nM
12,Cn1cnc(Cn2c(=O)nc(Nc3cc4cn(C)nc4cc3Cl)n(Cc3c4ccccc4cc4ccccc34)c2=O)n1 [II-0225],2700 nM
13,CNc1nc2cc(Cl)c(Nc3nc(=O)n(Cc4ncn(C)n4)c(=O)n3Cc3ccc(F)c(C#N)c3)cc2s1 [II-0603],< 100 nM
14,CNC(=O)Cn1cc2cc(Nc3nc(=O)n(Cc4ncn(C)n4)c(=O)n3Cc3cc(F)c(F)c(Cl)c3)c(Cl)cc2n1 [II-0145],< 100 nM
15,CC(=O)Nc1snc2cc(Cl)c(Nc3nc(=O)n(Cc4ncn(C)n4)c(=O)n3Cc3cc(Cl)c(F)cc3F)cc12 [II-0610],< 100 nM
16,CCS(=O)(CC)=Nc1ccc(Nc2nc(=O)n(-c3cncc(C)c3)c(=O)n2Cc2cc(Cl)ccc2C)c(Cl)c1 [II-0621],< 100 nM
17,Cn1cnc(Cn2c(=O)nc(Nc3cc4cn(C)nc4cc3Cl)n(Cc3cc(Cl)cc(F)c3OCCO)c2=O)n1 [II-0642],< 100 nM
18,COCCN(C)C(=O)Cn1cc2cc(Nc3nc(=O)n(Cc4ncn(C)n4)c(=O)n3Cc3cc(F)c(F)c(Cl)c3)c(Cl)cc2n1 [II-0141],< 100 nM
19,Cn1cnc(Cn2c(=O)nc(Nc3cc4cn(CC(=O)N5CCCCC5)nc4cc3Cl)n(Cc3cc(F)c(F)c(Cl)c3)c2=O)n1 [II-0142],< 100 nM
20,Cn1cnc(Cn2c(=O)nc(Nc3cc4cn(CC(=O)N5CCC5)nc4cc3Cl)n(Cc3cc(Cl)c(F)cc3F)c2=O)n1 [II-0149],< 100 nM
21,CNC(=O)Cn1c(=O)nc(Nc2cc3sc(C)nc3cc2C)n(Cc2cc(F)c(F)c(F)c2)c1=O [Compound I-0479],1000 to 10000 nM
22,CNC(=O)Cn1c(=O)[nH]/c(=N\c2ccc(OC(F)F)cc2C)n(Cc2cc(F)c(F)c(F)c2)c1=O [II-0331],1000 to 10000 nM
23,Cc1cncc(-n2c(=O)nc(Nc3ccc(N=S(C)(C)=O)cc3OC(F)(F)F)n(Cc3cc(Cl)ccc3C)c2=O)c1 [II-0632],< 100 nM
24,CC(=O)NCCn1cc2cc(Nc3nc(=O)n(Cc4ccccn4)c(=O)n3Cc3cc(F)c(F)cc3F)c(Cl)cc2n1 [II-0248],< 100 nM
25,COc1ccc(Nc2nc(=O)n(Cc3nc(Br)c[nH]c3=O)c(=O)n2Cc2cc(F)c(F)c(F)c2)cc1 [Compound I-0106],1900 nM and 1000 to 10000 nM

# From US12559474B2, “Triazine derivatives having virus replication inhibitory activity and pharmaceutical composition comprising the same” (priority 2021, dated 2026)
